Values of other authors as cited in patent US6534473B1, “Process for the manufacture of tablet detergent compositions” (Unilever Patent Holdings BV, priority 1998, dated 2003).
Read-outs that look alike come from different tables or passages of the source.

[1] = at 20° C., other common materials, by contrast

| SMILES | Water Solubility [1] | solubility in water (at 20° C.) | Water Solubility (grams of solid to form a saturated solution in 100 grams of water at 20° C., highly water-soluble materials) |
| --- | --- | --- | --- |
| O=BO[O-].[Na+] [Sodium perborate anhydrous] | 3.7 g/100 g |  |  |
| O=P(O)(O)OP(=O)(O)OP(=O)(O)O [Sodium tripolyphosphate anhydrous] | 15 g/100 g |  |  |
| NC(N)=O [Urea] |  | exceeding 100 gms per 100 ml water | >100 g/100 g |
